Measured values reported in patent publication US20170260185A1 (priority 2014, published 2017).
Where a name gives a salt, the structure may show the parent alone. Read-outs that look alike come from different tables or passages of the source.

Tests used:
[1] = target: T1, human norepinephrine transporter (NET) (Homo sapiens, UniProt P23975); assay: Scintillation Proximity Assay (SPA) competition binding, [3H]nisoxetine, hNET-CHO membranes
T1 construct: expressed in transfected cells; host or cells: CHO (hNET-CHO), membrane preparation
T1 sequence (P23975 whole entry): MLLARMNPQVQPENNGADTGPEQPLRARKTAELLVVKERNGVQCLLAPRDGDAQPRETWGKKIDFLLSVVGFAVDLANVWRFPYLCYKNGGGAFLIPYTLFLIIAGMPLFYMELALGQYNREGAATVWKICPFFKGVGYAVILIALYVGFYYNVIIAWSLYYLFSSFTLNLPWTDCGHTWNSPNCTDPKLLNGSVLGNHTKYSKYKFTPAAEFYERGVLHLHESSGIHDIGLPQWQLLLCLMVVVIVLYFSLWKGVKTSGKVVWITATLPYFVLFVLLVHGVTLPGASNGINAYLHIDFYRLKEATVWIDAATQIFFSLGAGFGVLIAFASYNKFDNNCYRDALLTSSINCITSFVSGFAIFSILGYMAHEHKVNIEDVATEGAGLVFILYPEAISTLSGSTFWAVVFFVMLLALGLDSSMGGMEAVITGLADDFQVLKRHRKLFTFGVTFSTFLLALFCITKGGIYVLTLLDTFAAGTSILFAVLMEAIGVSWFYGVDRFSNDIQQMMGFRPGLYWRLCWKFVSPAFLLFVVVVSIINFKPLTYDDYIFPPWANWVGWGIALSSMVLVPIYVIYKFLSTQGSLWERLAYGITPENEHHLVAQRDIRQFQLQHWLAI

[2] = target: T2, human dopamine transporter (DAT) (Homo sapiens, UniProt Q01959); assay: Scintillation Proximity Assay (SPA) competition binding, [3H]WIN-35,428, hDAT-CHO membranes
T2 construct: expressed in transfected cells; host or cells: CHO (hDAT-CHO), membrane preparation
T2 sequence (Q01959 whole entry): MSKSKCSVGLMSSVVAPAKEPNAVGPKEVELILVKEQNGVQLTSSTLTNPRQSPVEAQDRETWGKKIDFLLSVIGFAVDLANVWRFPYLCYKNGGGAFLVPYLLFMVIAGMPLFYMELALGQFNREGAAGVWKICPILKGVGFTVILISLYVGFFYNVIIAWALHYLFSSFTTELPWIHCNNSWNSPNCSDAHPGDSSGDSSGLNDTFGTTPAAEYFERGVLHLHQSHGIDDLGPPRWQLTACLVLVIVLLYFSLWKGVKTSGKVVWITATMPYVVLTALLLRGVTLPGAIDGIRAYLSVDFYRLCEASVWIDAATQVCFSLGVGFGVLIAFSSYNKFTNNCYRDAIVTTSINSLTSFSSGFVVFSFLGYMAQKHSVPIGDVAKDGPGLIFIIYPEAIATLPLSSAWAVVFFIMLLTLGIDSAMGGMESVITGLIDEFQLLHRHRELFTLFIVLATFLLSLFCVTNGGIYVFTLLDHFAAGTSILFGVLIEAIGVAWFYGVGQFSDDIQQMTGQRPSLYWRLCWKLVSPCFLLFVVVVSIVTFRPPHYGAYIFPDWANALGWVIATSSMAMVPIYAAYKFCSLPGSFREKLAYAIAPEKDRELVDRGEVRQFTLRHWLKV

[3] = target: T3, human serotonin transporter (SERT) (Homo sapiens, UniProt P31645); assay: Scintillation Proximity Assay (SPA) competition binding, [3H]citalopram, hSERT-CHO membranes
T3 construct: expressed in transfected cells; host or cells: CHO (hSERT-CHO), membrane preparation
T3 sequence (P31645 whole entry): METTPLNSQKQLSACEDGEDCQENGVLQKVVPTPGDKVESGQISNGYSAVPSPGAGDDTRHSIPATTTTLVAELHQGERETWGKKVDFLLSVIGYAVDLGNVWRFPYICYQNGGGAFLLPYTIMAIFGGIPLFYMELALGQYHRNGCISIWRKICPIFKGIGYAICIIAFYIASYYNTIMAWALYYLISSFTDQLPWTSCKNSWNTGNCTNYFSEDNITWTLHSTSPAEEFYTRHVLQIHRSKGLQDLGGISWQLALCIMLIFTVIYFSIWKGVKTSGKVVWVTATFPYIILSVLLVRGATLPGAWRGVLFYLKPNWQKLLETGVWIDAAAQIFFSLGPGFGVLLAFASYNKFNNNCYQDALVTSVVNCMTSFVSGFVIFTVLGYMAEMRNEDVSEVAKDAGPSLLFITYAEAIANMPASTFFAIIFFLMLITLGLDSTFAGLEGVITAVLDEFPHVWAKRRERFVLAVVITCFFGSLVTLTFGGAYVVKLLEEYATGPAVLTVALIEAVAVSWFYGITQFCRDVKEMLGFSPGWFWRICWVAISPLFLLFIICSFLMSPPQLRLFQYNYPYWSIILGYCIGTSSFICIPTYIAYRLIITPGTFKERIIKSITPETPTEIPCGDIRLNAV

[4] = target: human ERG potassium channel (hERG) (Homo sapiens, UniProt Q12809); assay: cell-based
Chain of human ERG potassium channel (hERG) (Q12809 whole entry): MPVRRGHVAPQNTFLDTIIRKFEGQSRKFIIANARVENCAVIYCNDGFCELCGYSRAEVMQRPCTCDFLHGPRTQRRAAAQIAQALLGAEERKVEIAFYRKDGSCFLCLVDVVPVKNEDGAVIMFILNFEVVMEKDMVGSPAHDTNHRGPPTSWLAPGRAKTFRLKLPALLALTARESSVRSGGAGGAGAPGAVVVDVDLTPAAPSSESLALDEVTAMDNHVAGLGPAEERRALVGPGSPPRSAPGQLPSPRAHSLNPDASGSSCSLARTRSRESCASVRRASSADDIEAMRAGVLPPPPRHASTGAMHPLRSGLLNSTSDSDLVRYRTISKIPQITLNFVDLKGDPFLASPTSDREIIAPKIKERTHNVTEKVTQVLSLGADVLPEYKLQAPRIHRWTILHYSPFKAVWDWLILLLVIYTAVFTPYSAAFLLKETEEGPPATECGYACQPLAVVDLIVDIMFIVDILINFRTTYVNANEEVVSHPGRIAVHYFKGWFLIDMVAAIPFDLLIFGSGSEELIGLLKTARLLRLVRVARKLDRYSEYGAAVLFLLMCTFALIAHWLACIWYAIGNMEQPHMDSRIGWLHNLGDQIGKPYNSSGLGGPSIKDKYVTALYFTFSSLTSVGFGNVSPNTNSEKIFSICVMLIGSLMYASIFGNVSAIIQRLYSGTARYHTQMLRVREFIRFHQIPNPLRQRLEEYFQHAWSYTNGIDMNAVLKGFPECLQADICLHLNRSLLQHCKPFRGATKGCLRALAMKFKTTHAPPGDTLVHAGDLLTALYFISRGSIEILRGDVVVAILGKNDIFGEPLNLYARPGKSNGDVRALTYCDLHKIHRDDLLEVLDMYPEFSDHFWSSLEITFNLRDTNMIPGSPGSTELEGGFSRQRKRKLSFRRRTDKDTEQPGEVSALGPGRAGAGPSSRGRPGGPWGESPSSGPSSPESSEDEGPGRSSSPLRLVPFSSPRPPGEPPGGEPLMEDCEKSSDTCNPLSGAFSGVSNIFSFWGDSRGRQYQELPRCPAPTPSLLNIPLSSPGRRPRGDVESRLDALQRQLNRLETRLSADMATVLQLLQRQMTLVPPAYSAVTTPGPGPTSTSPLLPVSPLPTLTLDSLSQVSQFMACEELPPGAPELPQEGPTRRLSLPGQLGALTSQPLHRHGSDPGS
Procedure: Measure of the Effect on hERG Channel by Tail Current Recording Using In Vitro Rapid ICE™
The potency of the compounds of the invention in inhibiting human ERG potassium channel (hERG) tail current is assessed in a recombinant HEK293 cell line stably transfected with hERG cDNA using Rapid ICE™ (Rapid Ion Channel Electrophysiology) assay. Rapid ICE™ is an automated patch-clamp assay utilizing the PatchXpress 7000A system (Molecular Devices Corporation) or the QPatch HTX system (Sophion Bioscience A/S).
Briefly cells are cultivated for 24 to 72 hours before recordings in minimum essential medium supplemented with 10% FBS, 1% non-essential amino acids, 1% sodium pyruvate, 2 mM L-glutamine. The day of the experiment cells are detached with TrypLE and prepared to be loaded on the instrument. For PatchXpress cells are finally resuspended in 150 μl of Extracellular Buffer whereas for QPatch cells are resuspended in 7 ml Serum-Free Media containing 25 mM Hepes and Soybean trypsin inhibitor and immediately placed in the cell storage tank of the machine. The composition of the Extracellular Buffer is (mM): NaCl 137; KCl 4; CaCl2 1.8; MgCl2 1.0; D-glucose 10; N 2 hydroxyethylpiperazine-N′-2-ethanesulfonic acid (HEPES) 10; pH 7.4 with 1 M NaOH. The composition of the pipette solution is (mM): KCl 130; MgCl2 1.0; Ethylene glycol-bis(R-aminoethyl ether)-N,N,N′,N′-tetraacetic acid (EGTA) 5; MgATP 5; HEPES 10; pH 7.2 with 1 M KOH. The voltage protocol includes the following steps: step from −80 mV to −50 mV for 200 ms, +20 mV for 4.8 s, step to −50 mV for 5 s then step to the holding potential of −80 mV. Compounds of the invention are dissolved in DMSO and diluted in Extracellular Buffer to achieve final test concentrations (0.1, 1 and 10 μM) in 0.1% DMSO. The voltage protocol is run and recorded continuously during the experiment. The vehicle, corresponding to 0.1% DMSO in Extracellular Buffer, is then applied for 3 min followed by the test substance in triplicate. The standard combined exposure time is 5 min. The average of tail current amplitude values recorded from 4 sequential voltage pulses is used to calculate for each cell the effect of the test substance by calculating the residual current (% control) compared with vehicle pre-treatment. Data are reported as % inhibition for each concentration tested and IC50 values are estimated using DataXpress or QPatch software. At least two cells are tested, more if results diverge.

[5] = read-out: pIC50 DAT (converted)
[6] = hERG tail current, HEK293 cells, read-out: pIC50 hERG (converted)

IC50 [1] [nM] | IC50 [2, 5] [nM] | IC50 [3] [nM] | SMILES | IC50 [4, 6] [nM] | IC50 ([2]; pIC50 DAT) [nM] | IC50 [4] [nM]
3240 | 145 | 7410 | COC1CCNCC12CCN(C(c1ccc(F)cc1)c1ccc(F)cc1)C2 (mixture of isomers) [Example 5, 2-[bis(4-fluorophenyl)methyl]-10-methoxy-2,7-diazaspiro[4.5]decane] |  |  | 
3550 | 224 | 12900 | O[C@@H]1CCNC[C@]12CCN(C(c1ccc(F)cc1)c1ccc(F)cc1)C2 (single isomer, unassigned) [Example 11, 2-[bis(4-fluorophenyl)methyl]-2,7-diazaspiro[4.5]decan-10-ol] |  |  | 
7940 | 302 | 17000 | O[C@@H]1CCNC[C@]12CCN(C(c1ccc(F)cc1)c1ccc(F)cc1)C2 (single isomer, unassigned) [Example 12, 2-[bis(4-fluorophenyl)methyl]-2,7-diazaspiro[4.5]decan-10-ol] |  |  | 
4270 | 174 | 19500 | O[C@@H]1CCNC[C@@]12CCN(C(c1ccc(F)cc1)c1ccc(F)cc1)C2 (single isomer, unassigned) [Example 13, 2-[bis(4-fluorophenyl)methyl]-2,7-diazaspiro[4.5]decan-10-ol] |  |  | 
1740 | 200 | 22400 | O[C@@H]1CCNC[C@@]12CCN(C(c1ccc(F)cc1)c1ccc(F)cc1)C2 (single isomer, unassigned) [Example 14, 2-[bis(4-fluorophenyl)methyl]-2,7-diazaspiro[4.5]decan-10-ol] |  |  | 
2000 | 204 | 4790 | CO/N=C1\CCNC[C@]12CCN(C(c1ccc(F)cc1)c1ccc(F)cc1)C2 (single isomer, unassigned) [Example 15, (5S or 5R,10E)-2-[bis(4-fluorophenyl)methyl]-N-methoxy-2,7-diazaspiro[4.5]decan-10-imine] |  |  | 
4470 | 309 | 3390 | Fc1ccc(C(c2ccc(F)cc2)N2CCC3(CNCCC34OCCO4)C2)cc1 (stereo not shown) [Example 6, 8-[bis(4-fluorophenyl)methyl]-1,4-dioxa-8,12-diazadispiro[4.0.4^6.4^5]tetradecane] |  |  | 
3310 | 204 | 1780 | O=C1CCNCC12CCN(C(c1ccc(Cl)cc1)c1ccc(Cl)cc1)C2 (stereo not shown) [Example 19, 2-[bis(4-chlorophenyl)methyl]-2,7-diazaspiro[4.5]decan-10-one] |  |  | 
6030 | 186 | 6760 | OC1CNCCC12CCN(C(c1ccc(F)cc1)c1ccc(F)cc1)C2 (stereo not shown) [Example 21, 2-[bis(4-fluorophenyl)methyl]-2,8-diazaspiro[4.5]decan-6-ol] |  |  | 
5750 | 110 | 6460 | Fc1ccc(C(c2ccc(F)cc2)N2CCC3(CCCNC3)C2)cc1 (stereo not shown) [Example 22, 2-[bis(4-fluorophenyl)methyl]-2,7-diazaspiro[4.5]decane] |  |  | 
5010 | 115 | 4270 | CN1CCCC2(CCN(C(c3ccc(F)cc3)c3ccc(F)cc3)C2)C1 (stereo not shown) [Example 23, 2-[bis(4-fluorophenyl)methyl]-7-methyl-2,7-diazaspiro[4.5]decane] |  |  | 
295 | 537 | 11000 | Fc1ccc(C(c2ccc(F)cc2)N2CCCC3(CCNC3)C2)cc1 (stereo not shown) [Example 24, 7-[bis(4-fluorophenyl)methyl]-2,7-diazaspiro[4.5]decane] |  |  | 
2400 | 363 | 1580 | Fc1ccc(C(c2ccc(F)cc2)N2CCCC3(CCNCC3)C2)cc1 [Example 25, 2-[bis(4-fluorophenyl)methyl]-2,9-diazaspiro[5.5]undecane] |  |  | 
2000 | 135 | 5250 | Fc1ccc(C(c2ccc(F)cc2)N2CCC3(CCCNC3)CC2)cc1 [Example 26, 9-[bis(4-fluorophenyl)methyl]-2,9-diazaspiro[5.5]undecane] |  |  | 
1230 | 316 | 676 | Clc1ccc(C(c2ccc(Cl)cc2)N2CCC3(CCNCC3)C2)cc1 [Example 28, 2-[bis(4-chlorophenyl)methyl]-2,8-diazaspiro[4.5]decane] |  |  | 
2400 | 151 | 912 | Clc1ccc(C(c2ccc(Cl)cc2)N2CCC3(CNCCO3)C2)cc1 (stereo not shown) [Example 30, 2-[bis(4-chlorophenyl)methyl]-6-oxa-2,9-diazaspiro[4.5]decane] |  |  | 

SMILES | IC50 [1] [nM] | IC50 [2, 5] [nM] | IC50 [3] [nM] | IC50 [4, 6] [nM] | IC50 ([2]; pIC50 DAT) [nM] | IC50 [4] [nM]
O=C1CCNC[C@@]12CCN(C(c1ccc(F)cc1)c1ccc(F)cc1)C2 (single isomer, unassigned) [Example 7, (5R or 5S)-2-[bis(4-fluorophenyl)methyl]-2,7-diazaspiro[4.5]decan-10-one] | 2140 | 162 | 14100 |  |  | 
O=C1CCNC[C@]12CCN(C(c1ccc(F)cc1)c1ccc(F)cc1)C2 (single isomer, unassigned) [Example 8, (5S or 5R)-2-[bis(4-fluorophenyl)methyl]-2,7-diazaspiro[4.5]decan-10-one] | 1380 | 132 | 7410 |  |  | 
O=C1CCNC[C@@]12CCN(C(c1ccc(F)cc1)c1ccc(F)cc1)C2 (single isomer, unassigned) [Example 9, (5R or 5S)-2-[bis(4-fluorophenyl)methyl]-2,7-diazaspiro[4.5]decan-10-one dihydrochloride salt] | 2400 | 263 | 10700 | 5010 |  | 
O=C1CCNC[C@]12CCN(C(c1ccc(F)cc1)c1ccc(F)cc1)C2 (single isomer, unassigned) [Example 10, (5S or 5R)-2-[bis(4-fluorophenyl)methyl]-2,7-diazaspiro[4.5]decan-10-one dihydrochloride salt] | 6460 | 148 | 15500 | 5010 |  | 
ON=C1CCNCC12CCN(C(c1ccc(F)cc1)c1ccc(F)cc1)C2 (single isomer, unassigned) [Example 16, N-[(5S or 5R,10E)-2-[bis(4-fluorophenyl)methyl]-2,7-diazaspiro[4.5]decan-10-ylidene]hydroxylamine] | 6310 |  | 6610 |  | 49 | 2510
Fc1ccc(C(c2ccc(F)cc2)N2CC[C@]3(CNCCC3(F)F)C2)cc1 (single isomer, unassigned) [Example 17, (5S or 5R)-2-[bis(4-fluorophenyl)methyl]-10,10-difluoro-2,7-diazaspiro[4.5]decane] | 1070 |  | 13200 |  | 22.9 | 3160
FC1=CCNC[C@]12CCN(C(c1ccc(F)cc1)c1ccc(F)cc1)C2 (single isomer, unassigned) [Example 18, (5S or 5R)-2-[bis(4-fluorophenyl)methyl]-10-fluoro-2,7-diazaspiro[4.5]dec-9-ene] | 1860 |  | 9330 |  | 30.2 | 3160
O=C1CCNCC12CCN(C(c1ccc(F)cc1)c1ccc(F)cc1)C2 (stereo not shown) [Example 1, 2-[bis(4-fluorophenyl)methyl]-2,7-diazaspiro[4.5]decan-10-one] | 3800 | 129 | 22400 |  |  | 2000
CN1CCC(=O)C2(CCN(C(c3ccc(F)cc3)c3ccc(F)cc3)C2)C1 (stereo not shown) [Example 2, 2-[bis(4-fluorophenyl)methyl]-7-methyl-2,7-diazaspiro[4.5]decan-10-one] | 22400 | 372 | 21900 |  |  | 7940
Fc1ccc(C(c2ccc(F)cc2)N2CCC3(CCNCC34OCCO4)C2)cc1 (stereo not shown) [Example 20, 8-[bis(4-fluorophenyl)methyl]-1,4-dioxa-8,13-diazadispiro[4.0.4^6.4^5]tetradecane] | 2000 |  | 2090 |  | 28.8 | 
Fc1ccc(C(c2ccc(F)cc2)N2CCC3(CC2)CNCCS3)cc1 [Example 32, 9-[bis(4-fluorophenyl)methyl]-1-thia-4,9-diazaspiro[5.5]undecane] | 2450 |  | 2340 |  | 58.9 | 
